Experimental data from the supplement of paper PMC10307832.

What was measured:
Test in all cases: relative viability (nuclei count vs DMSO), 5 days (fraction); higher = more cells survive
NCI-H1623 = test system: NCI-H1623
In short: (§1)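 Values are medians from duplicate plates. Each reflects relative viability, defined as the nuclei count of treated wells over that of vehicle wells. Lung cancer cell lines in 1536-well plates were pin-tool dosed one day after seeding with one drug alone or with a fixed anchor-drug dose plus five library-drug doses (not always all listed) in √10 steps, then fixed, stained and imaged at 4× after 5 days.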

NCI-H522 = test system: NCI-H522
In short: as §1

NCI-H2342 = test system: NCI-H2342
In short: as §1

NCI-H1563 = test system: NCI-H1563
In short: as §1

SW 900 = test system: SW 900
In short: as §1

A549 = test system: A549
In short: as §1

O=C(O)CCCCC(CCSCc1ccccc1)SCc1ccccc1 (centres undefined) [CPI-613] + Cc1nc(Nc2ncc(C(=O)Nc3c(C)cccc3Cl)s2)cc(N2CCN(CCO)CC2)n1 [Dasatinib] (partner 0.075 µM)
relative viability (NCI-H1623; first compound 5 µM): 0.592
relative viability (NCI-H1623; first compound 15.81 µM): 0.566
relative viability (NCI-H1623; first compound 50 µM): 0.549
relative viability (NCI-H1623; first compound 158.11 µM): 0.39
relative viability (NCI-H1623; first compound 500 µM): 0.569
relative viability (NCI-H522; first compound 5 µM): 0.818
relative viability (NCI-H522; first compound 15.81 µM): 1.01
relative viability (NCI-H522; first compound 50 µM): 0.922
relative viability (NCI-H522; first compound 158.11 µM): 0.84
relative viability (NCI-H522; first compound 500 µM): 0.494
relative viability (NCI-H2342; first compound 5 µM): 0.315
relative viability (NCI-H2342; first compound 15.81 µM): 0.275
relative viability (NCI-H2342; first compound 50 µM): 0.315
relative viability (NCI-H2342; first compound 158.11 µM): 0.286
relative viability (NCI-H2342; first compound 500 µM): 0.294
relative viability (NCI-H1563; first compound 5 µM): 0.455
relative viability (NCI-H1563; first compound 15.81 µM): 0.443
relative viability (NCI-H1563; first compound 50 µM): 0.436
relative viability (NCI-H1563; first compound 158.11 µM): 0.461
relative viability (NCI-H1563; first compound 500 µM): 0.456
relative viability (SW 900; first compound 5 µM): 0.692
relative viability (SW 900; first compound 15.81 µM): 0.542
relative viability (SW 900; first compound 50 µM): 0.686
relative viability (SW 900; first compound 158.11 µM): 0.262
relative viability (SW 900; first compound 500 µM): 0.121

O=C(O)CCCCC(CCSCc1ccccc1)SCc1ccccc1 (centres undefined) [CPI-613] + N=C(N)NC(=N)NCCc1ccccc1 [Phenformin] (partner 250 µM)
relative viability (NCI-H1623; first compound 5 µM): 0.63
relative viability (NCI-H1623; first compound 15.81 µM): 0.565
relative viability (NCI-H1623; first compound 50 µM): 0.573
relative viability (NCI-H1623; first compound 158.11 µM): 0.488
relative viability (NCI-H1623; first compound 500 µM): 0.551
relative viability (NCI-H522; first compound 5 µM): 0.681
relative viability (NCI-H522; first compound 15.81 µM): 0.672
relative viability (NCI-H522; first compound 50 µM): 0.625
relative viability (NCI-H522; first compound 158.11 µM): 0.588
relative viability (NCI-H522; first compound 500 µM): 0.399
relative viability (NCI-H2342; first compound 5 µM): 0.636
relative viability (NCI-H2342; first compound 15.81 µM): 0.589
relative viability (NCI-H2342; first compound 50 µM): 0.586
relative viability (NCI-H2342; first compound 158.11 µM): 0.487
relative viability (NCI-H2342; first compound 500 µM): 0.638
relative viability (A549; first compound 5 µM): 0.162
relative viability (A549; first compound 15.81 µM): 0.172
relative viability (A549; first compound 50 µM): 0.178
relative viability (A549; first compound 158.11 µM): 0.131
relative viability (A549; first compound 500 µM): 0.107
relative viability (NCI-H1563; first compound 5 µM): 0.638
relative viability (NCI-H1563; first compound 15.81 µM): 0.588
relative viability (NCI-H1563; first compound 50 µM): 0.637
relative viability (NCI-H1563; first compound 158.11 µM): 0.503
relative viability (NCI-H1563; first compound 500 µM): 0.27
relative viability (SW 900; first compound 5 µM): 0.579
relative viability (SW 900; first compound 15.81 µM): 0.542
relative viability (SW 900; first compound 50 µM): 0.4
relative viability (SW 900; first compound 158.11 µM): 0.305
relative viability (SW 900; first compound 500 µM): 0.03

O=c1[nH]c2ccccc2n1C1CCN(CCCC(c2ccc(F)cc2)c2ccc(F)cc2)CC1 [Pimozide] + CCNC(=O)c1noc(-c2cc(C(C)C)c(O)cc2O)c1-c1ccc(CN2CCOCC2)cc1 [Luminespib] (partner 0.01 µM)
relative viability (NCI-H1623; first compound 0.253 µM): 0.515
relative viability (NCI-H1623; first compound 0.8 µM): 0.487
relative viability (NCI-H1623; first compound 2.53 µM): 0.521
relative viability (NCI-H1623; first compound 8 µM): 0.447
relative viability (NCI-H522; first compound 0.08 µM): 1.01
relative viability (NCI-H522; first compound 0.253 µM): 1.08
relative viability (NCI-H522; first compound 0.8 µM): 1.21
relative viability (NCI-H522; first compound 2.53 µM): 1.21
relative viability (NCI-H522; first compound 8 µM): 1.24
relative viability (NCI-H2342; first compound 0.08 µM): 0.616
relative viability (NCI-H2342; first compound 0.253 µM): 0.685
relative viability (NCI-H2342; first compound 0.8 µM): 0.611
relative viability (NCI-H2342; first compound 2.53 µM): 0.739
relative viability (NCI-H2342; first compound 8 µM): 0.696
relative viability (NCI-H1563; first compound 0.08 µM): 0.511
relative viability (NCI-H1563; first compound 0.253 µM): 0.513
relative viability (NCI-H1563; first compound 0.8 µM): 0.516
relative viability (NCI-H1563; first compound 2.53 µM): 0.549
relative viability (NCI-H1563; first compound 8 µM): 0.496
relative viability (SW 900; first compound 0.08 µM): 0.163
relative viability (SW 900; first compound 0.253 µM): 0.157
relative viability (SW 900; first compound 0.8 µM): 0.18
relative viability (SW 900; first compound 2.53 µM): 0.192
relative viability (SW 900; first compound 8 µM): 0.181
